According to patent US20260102388A1 (priority 2022, published 2026):

System: SD rats
Experiment: Effect of compound implant of naltrexone on spontaneous activity
Conditions: implants 3 tablets/animal (diazepam 2 mg/kg), 60 min recording, X ± SEM
Experimental: Test animals: SPF-grade Sprague-Dawley (SD) rats, weighing 200±20 g, and they were fed adaptively.
Animal grouping and administration: Animals were divided into 8 groups with 12 animals in each group, half male and half female. In the experiment, animals were divided into positive control group (diazepam group, with a dose of 2 mg/kg), negative control group (normal saline), Example 1 group, Example 2 group, Comparative Example 2 group, Comparative Example 4 group, Comparative Example 5 group (dose: 3 tablets/animal), and fasten for 12 h before administration. The dosage volume for rats was 10 mL/kg.
The experiment was divided into three periods: adaptation period, pre-testing period and post-administration testing period. […]
Open field adaptation: After environmental adaptation, single rat/mouse was put into a spontaneous activity box for 60 min to adapt to the experiment box, and the spontaneous activity within 60 min was recorded, the general adaptation was 2-3 days to reduce the impact of environmental stimulation.
Baseline test: Single rat/mouse was put into a spontaneous activity box for 40 min to adapt to the experimental box, and spontaneous activity within 40 min was recorded, then divided equally to groups according to basic spontaneous activity. […]
Data were expressed as Mean±SEM. […]

CN1C(=O)CN=C(c2ccccc2)c2cc(Cl)ccc21 [Positive control group, diazepam]
total distance of activity: 9698.94 ± 902.16 mm
